In paper PMC12613110, “Anti-Trypanosoma cruzi Effects of Sesquiterpenoids from Branches of Drimys brasiliensis (Winteraceae)” (ACS Omega, 2025):

Assays:
[1] = tested on: intracellular amastigote forms of T. cruzi; test: Activity against intracellular amastigote forms of T. cruzi in infected peritoneal macrophages (48 h); type: cell-based; conditions: Trypanosoma cruzi, Peritoneal macrophage, intracellular amastigotes in peritoneal macrophages, ± SD, NA: nonactive
Description: (§1) The trypomastigote forms of T. cruzi (Y strain) were maintained in culture using Rhesus monkey kidney cells (LLC-MK2, ATCC CCL-7). These cells were cultured in RPMI-1640 medium supplemented with 2% fetal bovine serum (FBS) and incubated at 37 °C in a humidified atmosphere containing 5% CO2. Mouse fibroblast cells (NCTC clone L929, ATCC) and LLC-MK2 cells were similarly maintained in RPMI-1640 medium supplemented with 10% FBS under identical incubation conditions (37 °C, 5% CO2). Peritoneal macrophages were isolated from BALB/c mice by peritoneal lavage using RPMI-1640 medium supplemented with 10% FBS, followed by incubation at 37 °C in a 5% CO2 humidified atmosphere. In addition, the human monocytic cell line THP-1 (ATCC TIB-202) was cultured in RPMI-1640 medium supplemented with 20% FBS and […] glutamine, and maintained at 37 °C in a humidified 5% CO2 environment.
The antiparasitic activity of compounds 1–6 against the intracellular amastigote forms of T. cruzi was assessed using an in vitro infection model with peritoneal macrophages. Macrophages were seeded in 16-well plates at a density of 1 × 10^5 cells per well and incubated at 37 °C in a humidified atmosphere containing 5% CO2 for 24 h to promote adherence. Cells were then infected with trypomastigotes for 2 h under the same conditions to allow parasite internalization. Following infection, noninternalized parasites were removed by washing with RPMI-1640 medium. The infected macrophages were subsequently treated with serial dilutions of compounds 1–6 (150.0–1.6 μM) and incubated for an additional 48 h at 37 °C in 5% CO2 to evaluate their antitrypanosomal efficacy. ,
(§2) The CC50 and EC50 values were obtained from sigmoid dose–response curves using Graph-Pad Prims 6.0 software. All samples were tested in triplicate.

[2] = tested on: T. cruzi trypomastigotes (Y strain); test: Anti-T. cruzi activity against trypomastigote forms (resazurin reduction assay, 24 h); type: cell-based; conditions: Trypanosoma cruzi, ± SD
Description: as §1
Compounds 1–6 were initially dissolved in DMSO and subsequently diluted in RPMI-1640 medium to the desired concentrations before being dispensed into 96-well microplates. T. cruzi trypomastigotes were then added at a density of 1 × 10^6 parasites per well. The plates were incubated for 24 h at 37 °C in a humidified atmosphere containing 5% CO2. Following incubation, the 50% effective concentration (EC50) was determined using the resazurin reduction assay. Absorbance readings were acquired at 570 nm using a microplate spectrophotometer (FilterMax F5). Untreated parasites served as the negative control, while benznidazole, a standard reference drug, was used as the positive control.
as §2

[3] = Mammalian cytotoxicity, MTT assay (48 h); type: cell-based; conditions: mouse
Description: as §1
The cytotoxicity of compounds 1–6 was assessed using NCTC (clone L929) cell line. NCTC cells (6 × 10^4 cells/well) were seeded into 96-well plates and treated with serial dilutions of the test compounds prepared in RPMI-1640 medium supplemented with 10% fetal bovine serum (FBS). Following a 48-h incubation at 37 °C in a humidified atmosphere with 5% CO2, cell viability was determined using the MTT colorimetric assay. The 50% cytotoxic concentration (CC50) was calculated based on absorbance measurements at 570 nm using a FilterMax F5 microplate reader (Molecular Devices).
as §2

Leishmania infantum = tested on: Leishmania infantum; design: method as in previous study by our group; conditions: after a short incubation period; ref previous study by our group; cited from earlier work
[4] = NCTC clone L929 fibroblast cells

Compound	EC50 [2] [µM]	EC50 [1] [µM]	CC50 at 48 h [3, 4] [µM]	ultrastructural damage to Leishmania (Leishmania infantum)	CC50 at 48 h ([3]; NCTC clone L929 cells) [µM]
CC(C)=CCC[C@@H](C)C1=C[C@H](O)[C@@](C)(O)CC1 (relative stereo) [Compound 2, rel-(2S,3S,7R)-bisabola-1(6),10-diene-2,3-diol]	88.3 ± 6.5	24.2 ± 4.4	> 200		
CC(C)=CCC[C@@H](C)[C@]12C=C[C@](C)(CC1)OO2 (relative stereo) [Compound 3, rel-(3S,6R,7R)-3,6-epidioxy-1,10-bisaboladiene]	65.5 ± 5.4		> 200		
C=C1[C@@H](C)CC[C@]2(C)[C@@H](C=O)C(C=O)=CC[C@@H]12 [Compound 6, 9-deoxymuzigadial]	5.9 ± 0.9	3.1 ± 0.1			> 200

Further lines, with some results ahead:

EC50 [2] [µM]	Compound	EC50 [1] [µM]	CC50 at 48 h [3, 4] [µM]	ultrastructural damage to Leishmania (Leishmania infantum)	CC50 at 48 h ([3]; NCTC clone L929 cells) [µM]
38.5 ± 2.7	CC(C)=CCC[C@@H](C)C1=CC(=O)[C@@](C)(O)CC1 (relative stereo) [Compound 1, rel-(3S,7R)-3-hydroxy-bisabola-1(6),10-dien-2-one]	6.7 ± 3.8	> 200		
20.5 ± 1.6	CC(C)=CCC[C@@H](C)c1ccc(C)cc1 [Compound 4, α-curcumene]	4.9 ± 0.1	> 200		
3.8 ± 3.1	CC1(C)CCC[C@]2(C)[C@@H](C=O)C(C=O)=CC[C@@H]12 [Compound 5, polygodial]	3.5 ± 0.2	> 200	intense mitochondrial swelling	
17.4 ± 1.8	O=C(Cn1ccnc1[N+](=O)[O-])NCc1ccccc1 [benznidazole, reference compound]	5.5 ± 2.2	> 200		
